Legend:
[1] = Compound was evaluated for cytotoxicity against human ovarian cancer cell SKOV-3; type: functional, cell-based; details: Cancer cell lines
[2] = Compound was evaluated for cytotoxicity against human ovarian cancer cell A2780; type: functional, cell-based; details: Cancer cell lines
[3] = Compound was evaluated for cytotoxicity against human ovarian cancer cell A2780R.; type: functional, cell-based; details: Cancer cell lines
[4] = Compound was evaluated for cytotoxicity against human ovarian cancer cell CHI; type: functional, cell-based; details: Cancer cell lines
[5] = Compound was evaluated for cytotoxicity against human ovarian cancer cell CHI R; type: functional, cell-based; details: Cancer cell lines
[6] = target: Telomerase reverse transcriptase (Homo sapiens, UniProt O14746); assay: Inhibitory activity against human ovarian cancer cell (A2780 cells) Telomerase; type: cell-based
Chain of Telomerase reverse transcriptase (O14746 whole entry): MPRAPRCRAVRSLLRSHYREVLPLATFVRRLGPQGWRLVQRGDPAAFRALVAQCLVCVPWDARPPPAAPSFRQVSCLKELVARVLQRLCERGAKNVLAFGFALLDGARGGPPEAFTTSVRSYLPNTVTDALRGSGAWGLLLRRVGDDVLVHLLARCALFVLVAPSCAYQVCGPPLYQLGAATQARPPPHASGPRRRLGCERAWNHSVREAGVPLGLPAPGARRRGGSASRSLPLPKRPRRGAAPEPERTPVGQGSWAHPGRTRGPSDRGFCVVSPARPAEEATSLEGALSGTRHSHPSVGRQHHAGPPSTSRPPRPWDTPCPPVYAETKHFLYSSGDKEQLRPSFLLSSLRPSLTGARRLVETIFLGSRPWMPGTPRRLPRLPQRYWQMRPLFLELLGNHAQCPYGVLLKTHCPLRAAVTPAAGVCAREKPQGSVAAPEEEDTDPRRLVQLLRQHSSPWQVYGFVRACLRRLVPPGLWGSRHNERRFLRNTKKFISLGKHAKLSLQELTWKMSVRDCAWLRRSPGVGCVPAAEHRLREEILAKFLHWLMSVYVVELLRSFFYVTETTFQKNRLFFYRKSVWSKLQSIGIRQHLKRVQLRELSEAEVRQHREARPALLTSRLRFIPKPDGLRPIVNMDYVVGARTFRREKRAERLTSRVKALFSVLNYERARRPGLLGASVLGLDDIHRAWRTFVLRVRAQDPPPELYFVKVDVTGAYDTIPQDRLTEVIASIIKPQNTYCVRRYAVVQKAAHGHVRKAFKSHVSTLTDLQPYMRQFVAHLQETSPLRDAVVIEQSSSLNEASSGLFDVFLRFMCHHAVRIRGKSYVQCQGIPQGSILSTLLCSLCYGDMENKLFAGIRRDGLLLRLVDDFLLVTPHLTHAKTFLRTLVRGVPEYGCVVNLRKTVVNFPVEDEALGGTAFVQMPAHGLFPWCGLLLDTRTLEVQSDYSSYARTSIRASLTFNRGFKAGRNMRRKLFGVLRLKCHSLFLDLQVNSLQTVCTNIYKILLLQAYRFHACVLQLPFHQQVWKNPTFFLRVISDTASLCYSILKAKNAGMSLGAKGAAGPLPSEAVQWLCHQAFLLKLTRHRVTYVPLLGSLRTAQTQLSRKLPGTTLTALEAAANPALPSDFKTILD

IC50 [6] [µM] | Compound | IC50 [1] [µM] | IC50 [2] [µM] | IC50 [3] [µM] | IC50 [4] [µM] | IC50 [5] [µM]
16 | CN(C)CCc1ccc2nc3c4ccccc4n(CCN(C)C)c3cc2c1 | 6.3 | 12.5 | 10.5 | 8.4 | 12.5
7 | CCN(CC)CCOc1ccc2c(c1)OC1C(=O)c3ccccc3C(=O)C21 (stereo not given) | 3.6 | 0.15 |  | 0.18 | 
 | c1ccc2nc3c(cc2c1)[nH]c1ccccc13 [QUINDOLINE] | 66 | 21.5 | 24.5 | 15.5 | 30

— ChEMBL document CHEMBL1133308, “A novel inhibitor of human telomerase derived from 10H-indolo[3,2-b]quinoline” (Bioorg Med Chem Lett, 2000)
